pIC50: −log10 of the molar value. Calls of active or inactive are those of the source. The rule behind the calls is not given here.
Legend:
[1] = Toxicity in FVB mouse implanted with mouse Myc-CaP cells assessed as histopathological change in lung at 10 to 50 mg/kg,ip administrated daily for 14 consecutive days by hematoxylin and eosin staining based microscopic analysis; assay type: organism-based; conditions: in vivo, dose 10-50 mg/kg
[2] = Cytotoxicity against human HUVEC cells assessed as inhibition of cell growth incubated for 72 hrs by MTT assay; assay type: toxicity, cell-based
[3] = AUC (0 to t) in Sprague-Dawley rat at 10 mg/kg,ip administration by LC-MS/MS analysis; assay type: ADME, organism-based; conditions: in vivo
[4] = Toxicity in FVB mouse implanted with mouse Myc-CaP cells assessed as histopathological change in heart at 10 to 50 mg/kg,ip administrated daily for 14 consecutive days by hematoxylin and eosin staining based microscopic analysis; assay type: organism-based; conditions: in vivo, dose 10-50 mg/kg
MDA-MB-468 = assay: Antiproliferative activity against human MDA-MB-468 cells assessed as inhibition of cell growth incubated for 72 hrs by MTT assay; assay type: functional, cell-based; conditions: MDA-MB-468, 72 h
[5] = Cytotoxicity against human GES1 cells assessed as inhibition of cell growth incubated for 72 hrs by MTT assay; assay type: toxicity, cell-based
Myc-CaP [6] = assay: Antiproliferative activity against mouse Myc-CaP cells assessed as inhibition of cell growth incubated for 72 hrs by MTT assay; assay type: functional, cell-based
PC-3 [7] = assay: Antitumor activity against human PC-3 cells xenografted in BALB/C mouse assessed as tumor growth inhibition at 100 mg/kg,ip administrated daily for 21 consecutive days relative to control; assay type: functional; conditions: read-out: TGI
[8] = Volume of distribution at steady state in Sprague-Dawley rat at 2 mg/kg,iv administration by LC-MS/MS analysis; assay type: ADME, organism-based; conditions: in vivo, read-out: Vdss
[9] = Toxicity in BALB/C mouse xenografted with human PC-3 cells assessed as histopathological change in kidney at 50 to 100 mg/kg,ip administrated daily for 21 consecutive days by hematoxylin and eosin staining based microscopic analysis; assay type: organism-based; conditions: in vivo, dose 50-100 mg/kg
[10] = molecular target: Protein max (Homo sapiens) (UniProt P61244); assay: Binding affinity to MAX in human PC-3 cells assessed as effect on protein thermal stabilization at 10 uM with 37 to 58 degreeC incubated for 1 hr by CETSA based Western blotting analysis; assay type: cell-based
[11] = Toxicity in BALB/C mouse xenografted with human PC-3 cells assessed as histopathological change in heart at 50 to 100 mg/kg,ip administrated daily for 21 consecutive days by hematoxylin and eosin staining based microscopic analysis; assay type: organism-based; conditions: in vivo, dose 50-100 mg/kg
MV4-11 = assay: Antiproliferative activity against human MV4-11 cells assessed as inhibition of cell growth incubated for 72 hrs by MTT assay; assay type: functional, cell-based; conditions: MV4-11, 72 h
[12] = Clearance in Sprague-Dawley rat at 2 mg/kg,iv administration by LC-MS/MS analysis; assay type: ADME, organism-based; conditions: in vivo
PC-3 [13] = assay: Antitumor activity against human PC-3 cells xenografted in BALB/C mouse assessed as tumor growth inhibition at 75 mg/kg,ip administrated daily for 21 consecutive days relative to control; assay type: functional; conditions: read-out: TGI
[14] = Toxicity in FVB mouse implanted with mouse Myc-CaP cells assessed as histopathological change in kidney at 10 to 50 mg/kg,ip administrated daily for 14 consecutive days by hematoxylin and eosin staining based microscopic analysis; assay type: organism-based; conditions: in vivo, dose 10-50 mg/kg
HL-60 = assay: Antiproliferative activity against human HL-60 cells assessed as inhibition of cell growth incubated for 72 hrs by MTT assay; assay type: functional, cell-based; conditions: HL-60, 72 h
[15] = molecular target: T1, c-Myc/c-Max (Homo sapiens) (UniProt P01106+P61244); assay: Inhibition of MYC/MAX protein-protein interaction in human PC-3 cells at 10 uM incubated for 1 hr by Co-immunoprecipitation based immunoblotting analysis; assay type: cell-based
[16] = Toxicity in FVB mouse implanted with mouse Myc-CaP cells assessed as histopathological change in liver at 10 to 50 mg/kg,ip administrated daily for 14 consecutive days by hematoxylin and eosin staining based microscopic analysis; assay type: organism-based; conditions: in vivo, dose 10-50 mg/kg
[17] = molecular target: T1, c-Myc/c-Max (Homo sapiens); assay: Inhibition of MYC/MAX protein-protein interaction in human PC-3 cells at 1 uM incubated for 30 mins; assay type: cell-based
MDA-MB-231 = assay: Antiproliferative activity against human MDA-MB-231 cells assessed as inhibition of cell growth incubated for 72 hrs by MTT assay; assay type: functional, cell-based; conditions: MDA-MB-231, 72 h
[18] = molecular target: Myc proto-oncogene protein (Homo sapiens) (UniProt P01106); assay: Inhibition of MYC in human PC-3 cells assessed as downregulation of MYC expression incubated for 24 hrs by Western blotting analysis; assay type: cell-based
Myc-CaP [19] = assay: Antitumor activity against mouse Myc-CaP cells implanted in FVB mouse assessed as reduction in tumor weight at ip administrated daily for 14 consecutive days; assay type: functional, organism-based
PC-3 [20] = assay: Antitumor activity against human PC-3 cells xenografted in BALB/C mouse assessed as reduction in tumor volume at ip administrated daily for 21 consecutive days; assay type: functional, organism-based
HCT-116 = assay: Antiproliferative activity against human HCT-116 cells assessed as inhibition of cell growth incubated for 72 hrs by MTT assay; assay type: functional, cell-based; conditions: HCT-116, 72 h
[21] = Half life in Sprague-Dawley rat at 2 mg/kg,iv administration by LC-MS/MS analysis; assay type: ADME, organism-based; conditions: in vivo
[22] = Bioavailability in Sprague-Dawley rat at 2 mg/kg,iv administration by LC-MS/MS analysis; assay type: ADME, organism-based; conditions: in vivo
SGC-7901 = assay: Antiproliferative activity against human SGC-7901 cells assessed as inhibition of cell growth incubated for 72 hrs by MTT assay; assay type: functional, cell-based; conditions: SGC-7901, 72 h
[23] = Clearance in Sprague-Dawley rat at 10 mg/kg,ip administration by LC-MS/MS analysis; assay type: ADME, organism-based; conditions: in vivo
[24] = Toxicity in BALB/C mouse xenografted with human PC-3 cells assessed as histopathological change in spleen at 50 to 100 mg/kg,ip administrated daily for 21 consecutive days by hematoxylin and eosin staining based microscopic analysis; assay type: organism-based; conditions: in vivo, dose 50-100 mg/kg
[25] = Toxicity in FVB mouse implanted with mouse Myc-CaP cells assessed as histopathological change in spleen at 10 to 50 mg/kg,ip administrated daily for 14 consecutive days by hematoxylin and eosin staining based microscopic analysis; assay type: organism-based; conditions: in vivo, dose 10-50 mg/kg
Myc-CaP [26] = assay: Antitumor activity against mouse Myc-CaP cells implanted in FVB mouse assessed as tumor growth inhibition at 30 mg/kg,ip administrated daily for 14 consecutive days relative to control; assay type: functional; conditions: read-out: TGI
[27] = Toxicity in BALB/C mouse xenografted with human PC-3 cells assessed as body weight loss at 50 to 100 mg/kg,ip administrated daily for 21 consecutive days; assay type: organism-based; conditions: in vivo, dose 50-100 mg/kg
Myc-CaP [28] = assay: Antitumor activity against mouse Myc-CaP cells implanted in FVB mouse assessed as tumor growth inhibition at 50 mg/kg,ip administrated daily for 14 consecutive days relative to control; assay type: functional; conditions: read-out: TGI
Myc-CaP [29] = assay: Antitumor activity against mouse Myc-CaP cells implanted in FVB mouse assessed as reduction in tumor volume at ip administrated daily for 14 consecutive days; assay type: functional, organism-based
SK-N-BE(2) = assay: Antiproliferative activity against human SK-N-BE(2) cells assessed as inhibition of cell growth incubated for 72 hrs by MTT assay; assay type: functional, cell-based; conditions: SKNBE2, 72 h
[30] = Half life in Sprague-Dawley rat at 10 mg/kg,ip administration by LC-MS/MS analysis; assay type: ADME, organism-based; conditions: in vivo

T1 sequence (P01106 whole entry): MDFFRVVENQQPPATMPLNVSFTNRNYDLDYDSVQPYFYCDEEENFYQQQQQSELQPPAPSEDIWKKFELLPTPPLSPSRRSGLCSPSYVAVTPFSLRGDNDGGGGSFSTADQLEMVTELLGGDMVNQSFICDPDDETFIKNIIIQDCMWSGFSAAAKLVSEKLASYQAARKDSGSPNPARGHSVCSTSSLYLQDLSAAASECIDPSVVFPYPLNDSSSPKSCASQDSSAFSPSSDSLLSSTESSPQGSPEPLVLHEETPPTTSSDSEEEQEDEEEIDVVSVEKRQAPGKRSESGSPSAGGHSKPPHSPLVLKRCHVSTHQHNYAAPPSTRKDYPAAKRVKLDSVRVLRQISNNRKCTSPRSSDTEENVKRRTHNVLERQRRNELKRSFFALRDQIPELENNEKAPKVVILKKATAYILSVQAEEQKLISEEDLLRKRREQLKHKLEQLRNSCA
T1 sequence (P61244 2-160 partner limits assumed): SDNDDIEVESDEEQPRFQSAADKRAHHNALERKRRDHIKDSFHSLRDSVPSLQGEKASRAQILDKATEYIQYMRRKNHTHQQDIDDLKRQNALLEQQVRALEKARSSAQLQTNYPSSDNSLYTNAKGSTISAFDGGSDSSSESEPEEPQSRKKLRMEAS
Chain of Protein max (Homo sapiens) (P61244 whole entry): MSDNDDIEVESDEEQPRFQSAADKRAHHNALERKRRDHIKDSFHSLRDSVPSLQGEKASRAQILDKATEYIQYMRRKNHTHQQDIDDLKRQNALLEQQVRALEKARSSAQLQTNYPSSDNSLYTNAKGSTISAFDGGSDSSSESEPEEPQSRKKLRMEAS
Chain of Myc proto-oncogene protein (Homo sapiens) (P01106 whole entry): as the sequence (P01106 whole entry) above

SMILES: Oc1c(-c2cc(C(F)(F)F)n[nH]2)ccc(C#CCCN2CCOCC2)c1-c1ccc(Cl)c(C(F)(F)F)c1
- Activity [1]: Non-Toxic
- IC50 at 72 h [2]: 16.6 µM
- AUC(0-t) [3]: 2220 ng·h/mL
- Activity [4]: Non-Toxic
- pIC50 (MDA-MB-468): 5.36
- IC50 at 72 h [5]: > 100 µM
- pIC50 (Myc-CaP [6]): 6.26
- inhibition in vivo at 100 mg/kg (PC-3 [7]): 79%
- Vd [8]: 6.41 L/kg
- Activity [9]: Non-Toxic
- Activity [10]: inactive
- Activity [11]: Non-Toxic
- pIC50 (MV4-11): 6.05
- clearance [12]: 23.6 mL/min/kg
- inhibition in vivo at 75 mg/kg (PC-3 [13]): 69%
- Activity [14]: Non-Toxic
- pIC50 (HL-60): 5.72
- inhibition [15]: Active
- Activity [16]: Non-Toxic
- inhibition [17]: Active
- pIC50 (MDA-MB-231): 5.87
- inhibition [18]: Dose-Dependent Effect
- Activity (Myc-CaP [19]): Dose-Dependent Effect
- Activity (PC-3 [20]): Dose-Dependent Effect
- pIC50 (HCT-116): 6.00
- half-life [21]: 3.22 h
- bioavailability [22]: 31.7%
- pIC50 (SGC-7901): 5.71
- CL/F [23]: 74 mL/min/kg
- Activity [24]: Non-Toxic
- Activity [25]: Non-Toxic
- inhibition in vivo at 30 mg/kg (Myc-CaP [26]): 67%
- Activity [27]: Toxic
- inhibition in vivo at 50 mg/kg (Myc-CaP [28]): 85%
- Activity (Myc-CaP [29]): Dose-Dependent Effect
- pIC50 (SK-N-BE(2)): 5.90
- half-life [30]: 5.97 h
